From PMC4419590 (ChemMedChem, 2014)
Each block holds one compound with its values, some of them ahead of it.

How the values were obtained:
HIV-1MDR/B(X4) = experiment: microbe, parasite or virus in culture; type: cell-based; details: for fold change of EC50 compared to wild-type HIV-1ERS104pre: number in parentheses
HIV-1MDR/C(X4) = experiment: microbe, parasite or virus in culture; type: cell-based; details: for fold change of EC50 compared to wild-type HIV-1ERS104pre: number in parentheses
HIV-1MDR/G(X4) = experiment: microbe, parasite or virus in culture; type: cell-based; details: for fold change of EC50 compared to wild-type HIV-1ERS104pre: number in parentheses
HIV-1MDR/TM(X4) = experiment: microbe, parasite or virus in culture; type: cell-based; details: for fold change of EC50 compared to wild-type HIV-1ERS104pre: number in parentheses
HIV-1MDR/MM(R5) = experiment: microbe, parasite or virus in culture; type: cell-based; details: for fold change of EC50 compared to wild-type HIV-1ERS104pre: number in parentheses
HIV-1MDR/JSL(R5) = experiment: microbe, parasite or virus in culture; type: cell-based; details: for fold change of EC50 compared to wild-type HIV-1ERS104pre: number in parentheses
[1] = tested on: panel of six multidrug resistant clinical HIV-1 variants; experiment: microbe, parasite or virus in culture; type: cell-based; details: Human immunodeficiency virus 1, read-out: EC50 range across the panel
HIV-1LAI = experiment: Antiviral activity in MT-2 cells exposed to HIV-1LAI, MTT assay; type: cell-based
[2] = tested on: HIV-1ERS104pre (wild-type X4); experiment: Antiviral activity in PHA-PBMs, p24 Gag production, wild-type clinical isolate; type: cell-based
[3] = In vitro blood-brain-barrier model, triple co-culture drug transport assay; details: rat, monkey
[4] = tested on: MT-2 human T-lymphoid cells
[5] = tested on: in vitro BBB model (rat astrocytes, pericytes and monkey endothelial cells)
[6] = Human immunodeficiency virus 1, T-lymphoid, in Homo sapiens
[7] = PHA-PBMs, p24 Gag production, mean ± 1 SD

Structure (SMILES): CC(C)CN(C[C@@H](O)[C@H](Cc1ccccc1)NC(=O)O[C@H]1CCOC1)S(=O)(=O)c1ccc(N)cc1 [APV, amprenavir, reference compound]
- EC50 (HIV-1MDR/B(X4); Human immunodeficiency virus 1): 490 ± 50 nM
- fold change of EC50 compared to wild-type HIV-1ERS104pre (HIV-1MDR/B(X4)): 15
- EC50 (HIV-1MDR/C(X4); Human immunodeficiency virus 1): 210 ± 20 nM
- fold change of EC50 compared to wild-type HIV-1ERS104pre (HIV-1MDR/C(X4)): 7
- EC50 (HIV-1MDR/G(X4); Human immunodeficiency virus 1): 310 ± 80 nM
- fold change of EC50 compared to wild-type HIV-1ERS104pre (HIV-1MDR/G(X4)): 11
- fold change of EC50 compared to wild-type HIV-1ERS104pre (HIV-1MDR/TM(X4)): 12
- EC50 (HIV-1MDR/MM(R5); Human immunodeficiency virus 1): 630 ± 9 nM
- fold change of EC50 compared to wild-type HIV-1ERS104pre (HIV-1MDR/MM(R5)): 22
- EC50 (HIV-1MDR/JSL(R5); Human immunodeficiency virus 1): 270 ± 10 nM
- fold change of EC50 compared to wild-type HIV-1ERS104pre (HIV-1MDR/JSL(R5)): 9
- EC50 [1]: 210 to 630 nM

Structure (SMILES): CC(C)CN(C[C@@H](O)[C@H](Cc1ccccc1)NC(=O)O[C@H]1CO[C@H]2OCC[C@H]21)S(=O)(=O)c1ccc(N)cc1 [Darunavir, darunavir, reference compound]
- EC50 (HIV-1LAI; [6]): 5 nM
- EC50 ([2]; Human immunodeficiency virus 1): 4 ± 1 nM
- EC50 (HIV-1MDR/C(X4); Human immunodeficiency virus 1): 5 ± 1 nM
- EC50 (HIV-1MDR/G(X4); Human immunodeficiency virus 1): 14 ± 9 nM
- EC50 (HIV-1MDR/TM(X4); Human immunodeficiency virus 1): 30 ± 10 nM
- EC50 (HIV-1MDR/MM(R5); Human immunodeficiency virus 1): 25 ± 2 nM
- EC50 (HIV-1MDR/JSL(R5); Human immunodeficiency virus 1): 10 ± 1 nM
- Papp at 30 min, 100 μM [3]: 9.32 ± 2.25 ×10⁻⁶ cm/s

Structure (SMILES): COc1ccc(S(=O)(=O)N(CC(C)C)C[C@@H](O)[C@H](Cc2ccccc2)NC(=O)OC2CO[C@H]3OCC(F)(F)[C@@H]23)cc1 (stereo partly drawn) [Inhibitor 3]
- EC50 [2, 7]: 2.3 ± 0.1 nM
- EC50 (HIV-1MDR/B(X4); [7]): 14 ± 1 nM
- fold change of EC50 compared to wild-type HIV-1ERS104pre (HIV-1MDR/B(X4)): 7
- EC50 (HIV-1MDR/C(X4); [7]): 2 ± 1 nM
- fold change of EC50 compared to wild-type HIV-1ERS104pre (HIV-1MDR/C(X4)): 1
- EC50 (HIV-1MDR/G(X4); [7]): 4 ± 1 nM
- fold change of EC50 compared to wild-type HIV-1ERS104pre (HIV-1MDR/G(X4)): 2
- EC50 (HIV-1MDR/TM(X4); [7]): 4 ± 1 nM
- fold change of EC50 compared to wild-type HIV-1ERS104pre (HIV-1MDR/TM(X4)): 2
- EC50 (HIV-1MDR/MM(R5); [7]): 21 ± 4 nM
- fold change of EC50 compared to wild-type HIV-1ERS104pre (HIV-1MDR/MM(R5)): 10
- EC50 (HIV-1MDR/JSL(R5); [7]): 2 ± 1 nM
- fold change of EC50 compared to wild-type HIV-1ERS104pre (HIV-1MDR/JSL(R5)): 1
- CC50 [4]: 17500 nM
- Papp (apparent permeability coefficient) [5]: 50.38 ± 10.61 10^−6 cm/s

Structure (SMILES): CC(C)CN(C[C@@H](O)[C@H](Cc1ccccc1)NC(=O)O[C@H]1CO[C@H]2OCC(F)(F)[C@H]21)S(=O)(=O)c1ccc(N)cc1 [Inhibitor 4]
- EC50 (HIV-1LAI; MT-2 human T-lymphoid cells exposed to HIVLAI): 3 nM
- EC50 [2, 7]: 2.7 ± 0.3 nM
- EC50 (HIV-1MDR/B(X4); [7]): 11 ± 1 nM
- fold change of EC50 compared to wild-type HIV-1ERS104pre (HIV-1MDR/B(X4)): 3
- EC50 (HIV-1MDR/C(X4); [7]): 2 ± 1 nM
- fold change of EC50 compared to wild-type HIV-1ERS104pre (HIV-1MDR/C(X4)): 1
- EC50 (HIV-1MDR/G(X4); [7]): 4 ± 1 nM
- fold change of EC50 compared to wild-type HIV-1ERS104pre (HIV-1MDR/G(X4)): 1
- EC50 (HIV-1MDR/TM(X4); [7]): 4 ± 1 nM
- fold change of EC50 compared to wild-type HIV-1ERS104pre (HIV-1MDR/TM(X4)): 2
- EC50 (HIV-1MDR/MM(R5); [7]): 20 ± 0.2 nM
- fold change of EC50 compared to wild-type HIV-1ERS104pre (HIV-1MDR/MM(R5)): 7
- fold change of EC50 compared to wild-type HIV-1ERS104pre (HIV-1MDR/JSL(R5)): 1
- CC50 [4]: 37000 nM
- Papp (apparent permeability coefficient) [5]: 60.84 ± 3.97 10^−6 cm/s

- EC50 (HIV-1LAI; [6]): 21 nM
Structure (SMILES): CC(C)(C)NC(=O)[C@@H]1C[C@@H]2CCCC[C@@H]2CN1C[C@@H](O)[C@H](Cc1ccccc1)NC(=O)[C@H](CC(N)=O)NC(=O)c1ccc2ccccc2n1 [saquinavir]
